The structures appear in SMILES notation. Like-named read-outs stand apart in the source and are kept apart here. Some results are limits rather than exact numbers.

The assay addresses SIK2 (Homo sapiens, UniProt Q9H0K1). As to the kind of experiment: SIK2 Enzymatic Assay High Version 2 (High ATP). It is filed as biochemical. The method, boiled down: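 At room temperature, enzyme (6 nM, 2× final) was preincubated with compound for 30 min, then 6 mM ATP and 400 μM HDAC5tide (both 2× final) were added for 2 h. ADP formed was measured by ADP-Glo Max (2 h reagent, 1 h detection) using luminescence.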

Setting [1] is: enzyme 6 nM, 6 mM ATP and 400 μM HDAC5tide (each 2× final concentration), 30 minutes pre-incubation, 2 hours, ADP-Glo Max luminescence, read-out: SIK2 high ATP IC50 (μM) (Test Example 2).

SIK2, sequence (Q9H0K1 whole entry, species assumed): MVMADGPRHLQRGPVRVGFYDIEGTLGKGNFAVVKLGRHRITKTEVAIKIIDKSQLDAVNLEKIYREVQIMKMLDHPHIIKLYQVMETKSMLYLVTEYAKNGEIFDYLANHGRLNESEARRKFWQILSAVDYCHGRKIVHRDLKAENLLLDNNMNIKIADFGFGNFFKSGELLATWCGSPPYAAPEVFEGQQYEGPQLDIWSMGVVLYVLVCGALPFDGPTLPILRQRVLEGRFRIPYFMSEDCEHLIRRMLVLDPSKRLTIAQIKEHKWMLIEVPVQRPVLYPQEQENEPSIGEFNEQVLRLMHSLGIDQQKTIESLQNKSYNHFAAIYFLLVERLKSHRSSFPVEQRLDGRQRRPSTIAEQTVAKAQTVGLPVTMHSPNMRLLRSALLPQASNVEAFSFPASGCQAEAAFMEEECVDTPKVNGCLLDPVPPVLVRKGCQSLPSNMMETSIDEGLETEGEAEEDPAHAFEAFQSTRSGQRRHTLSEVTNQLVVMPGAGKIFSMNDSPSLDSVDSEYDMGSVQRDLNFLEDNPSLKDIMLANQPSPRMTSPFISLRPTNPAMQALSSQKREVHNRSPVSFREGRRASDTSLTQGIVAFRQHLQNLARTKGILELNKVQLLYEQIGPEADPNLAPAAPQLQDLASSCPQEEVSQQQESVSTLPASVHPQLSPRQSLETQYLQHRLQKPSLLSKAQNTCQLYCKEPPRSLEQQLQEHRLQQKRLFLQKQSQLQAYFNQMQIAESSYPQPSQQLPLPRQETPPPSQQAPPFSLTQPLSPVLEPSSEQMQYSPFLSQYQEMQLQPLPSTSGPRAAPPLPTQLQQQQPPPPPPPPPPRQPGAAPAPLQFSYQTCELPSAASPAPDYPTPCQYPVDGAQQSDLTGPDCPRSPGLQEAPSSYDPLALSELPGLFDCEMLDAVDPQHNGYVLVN

As a reminder, the IC50 is the concentration at which inhibition is half-maximal. As to `Cc1cc(-c2ccn3nc(Nc4ccc(S(=O)(=O)NC5CC5)cc4)cc3c2)c(O[C@H]2CC[C@H](O)CC2)cn1` [Example 323, N-cyclopropyl-4-[[5-[5-(4-hydroxycyclohexoxy)-2-methyl-4-pyridyl]pyrazolo[1,5-a]pyridin-2-yl]amino]benzenesulfonamide], the half-maximal inhibitory concentration (IC50) under setting [1] came to 0.0273 µM. Still for that read-out and setting: the result for `Cc1cc(-c2ccn3nc(Nc4ccc(S(=O)(=O)N(C)C)cc4)cc3c2)c(O[C@H]2CC[C@H](O)CC2)cn1` [Example 324, 4-[[5-[5-(4-hydroxycyclohexoxy)-2-methyl-4-pyridyl]pyrazolo[1,5-a]pyridin-2-yl]amino]-N,N-dimethyl-benzenesulfonamide] reads 0.0329 µM; that for `Cc1cc(-c2ccn3nc(Nc4cc(C)c(C(=O)NC5CC5)c(C)c4)cc3c2)c(OCC(C)(C)O)cn1` [Example 326, N-cyclopropyl-4-[[5-[5-(2-hydroxy-2-methyl-propoxy)-2-methyl-4-pyridyl]pyrazolo[1,5-a]pyridin-2-yl]amino]-2,6-dimethyl-benzamide], 0.0362 µM; that for `Cc1cc(Nc2cc3cc(-c4cc(CF)ncc4OCC(C)(C)O)ccn3n2)nc(C)n1` [Example 327, 1-[[4-[2-[(2,6-dimethylpyrimidin-4-yl)amino]pyrazolo[1,5-a]pyridin-5-yl]-6-(fluoromethyl)-3-pyridyl]oxy]-2-methyl-propan-2-ol], 0.0366 µM. On the same count and under the same terms, to `CCc1cc(-c2ccn3nc(Nc4cc(C)nc(C)n4)cc3c2)c(OCC(C)(C)C#N)cn1` [Example 328, 3-[[4-[2-[(2,6-dimethylpyrimidin-4-yl)amino]pyrazolo[1,5-a]pyridin-5-yl]-6-ethyl-3-pyridyl]oxy]-2,2-dimethyl-propanenitrile] belongs 0.0381 µM; to `Cc1cc(Nc2cc3cc(-c4cc(OC(F)F)ncc4OCC(C)(C)C#N)ccn3n2)nc(C)n1` [Example 329, 3-[[6-(difluoromethoxy)-4-[2-[(2,6-dimethylpyrimidin-4-yl)amino]pyrazolo[1,5-a]pyridin-5-yl]-3-pyridyl]oxy]-2,2-dimethyl-propanenitrile], 0.00358 µM. Still for that read-out and setting: the result for `COc1cc(Nc2cc3cc(-c4cc(C)ncc4O[C@H]4CC[C@H](O)CC4)ccn3n2)cc(OC)c1C(=O)NC(C)C` [Example 330, 4-[[5-[5-(4-hydroxycyclohexoxy)-2-methyl-4-pyridyl]pyrazolo[1,5-a]pyridin-2-yl]amino]-N-isopropyl-2,6-dimethoxy-benzamide] reads 0.028 µM; that for `CNC(=O)c1c(OC)cc(Nc2cc3cc(-c4cc(C)ncc4O[C@H]4CC[C@H](O)CC4)ccn3n2)cc1OC` [Example 331, 4-[[5-[5-(4-hydroxycyclohexoxy)-2-methyl-4-pyridyl]pyrazolo[1,5-a]pyridin-2-yl]amino]-2,6-dimethoxy-N-methyl-benzamide], 0.0366 µM; that for `COc1cc(Nc2cc3cc(-c4cc(C)ncc4O[C@H]4CC[C@H](O)CC4)ccn3n2)cc(OC)c1C(=O)N(C)C` [Example 332, 4-[[5-[5-(4-hydroxycyclohexoxy)-2-methyl-4-pyridyl]pyrazolo[1,5-a]pyridin-2-yl]amino]-2,6-dimethoxy-N,N-dimethyl-benzamide], 0.015 µM. On to `COc1cc(Nc2cc3cc(-c4cc(C)ncc4O[C@H]4CC[C@H](O)CC4)ccn3n2)cc(OC(F)F)c1C(=O)NC1CC1` [Example 333, N-cyclopropyl-2-(difluoromethoxy)-4-[[5-[5-(4-hydroxycyclohexoxy)-2-methyl-4-pyridyl]pyrazolo[1,5-a]pyridin-2-yl]amino]-6-methoxy-benzamide], for which the IC50 under setting [1] is 0.0448 µM. On the same count and under the same terms, the result for `Cc1cc(-c2ccn3nc(Nc4cc(C)c(C(=O)NC5CC5)c(C)n4)cc3c2)c(O[C@H]2CC[C@H](O)CC2)cn1` [Example 334, N-cyclopropyl-6-[[5-[5-(4-hydroxycyclohexoxy)-2-methyl-4-pyridyl]pyrazolo[1,5-a]pyridin-2-yl]amino]-2,4-dimethyl-pyridine-3-carboxamide] reads 0.00301 µM; that for `Cc1cc(-c2ccn3nc(Nc4cc(C)c(C(=O)NC5CC5)c(C)n4)cc3c2)c(OCC(C)(C)O)cn1` [Example 335, N-cyclopropyl-6-[[5-[5-(2-hydroxy-2-methyl-propoxy)-2-methyl-4-pyridyl]pyrazolo[1,5-a]pyridin-2-yl]amino]-2,4-dimethyl-pyridine-3-carboxamide], 0.0233 µM.

`Cc1cc(-c2ccn3nc(Nc4cc(C)nc(C)n4)cc3c2)c(O[C@H]2C[C@H]3COC[C@@H](C2)N3C#N)cn1` [Example 336, (1S,5R)-7-[[4-[2-[(2,6-dimethylpyrimidin-4-yl)amino]pyrazolo[1,5-a]pyridin-5-yl]-6-methyl-3-pyridyl]oxy]-3-oxa-9-azabicyclo[3.3.1]nonane-9-carbonitrile] registered a half-inhibitory concentration (IC50) below 0.000847 µM. Same read-out and setting: to `Cc1cc(-c2ccn3nc(Nc4cc(C)c(=O)n(C)n4)cc3c2)c(OC2C[C@H]3COC[C@@H](C2)N3)cn1` (stereo partly drawn) [Example 337, 2,4-dimethyl-6-[[5-[2-methyl-5-[[(1S,5R)-3-oxa-9-azabicyclo[3.3.1]nonan-7-yl]oxy]-4-pyridyl]pyrazolo[1,5-a]pyridin-2-yl]amino]pyridazin-3-one] belongs 0.00148 µM; to `Cc1cc(-c2ccn3nc(Nc4nccc(C)c4F)cc3c2)c(O[C@H]2C[C@H]3COC[C@@H](C2)N3)cn1` [Example 338, N-(3-fluoro-4-methyl-2-pyridyl)-5-[2-methyl-5-[[(1S,5R)-3-oxa-9-azabicyclo[3.3.1]nonan-7-yl]oxy]-4-pyridyl]pyrazolo[1,5-a]pyridin-2-amine], 0.00325 µM. The same measure, in the same setting: to `CC(=O)N1[C@@H]2COC[C@H]1C[C@@H](Oc1cnc(C)cc1-c1ccn3nc(NC(=O)C4CC4)cc3c1)C2` [Example 339, N-[5-[5-[[(1S,5R)-9-acetyl-3-oxa-9-azabicyclo[3.3.1]nonan-7-yl]oxy]-2-methyl-4-pyridyl]pyrazolo[1,5-a]pyridin-2-yl]cyclopropanecarboxamide] belongs 0.00231 µM; to `COc1cc(Nc2cc3cc(-c4cc(C)ncc4O[C@H]4C[C@H]5COC[C@@H](C4)N5)ccn3n2)cc(OC)c1C(=O)NC(C)C` [Example 340, N-isopropyl-2,6-dimethoxy-4-[[5-[2-methyl-5-[[(1S,5R)-3-oxa-9-azabicyclo[3.3.1]nonan-7-yl]oxy]-4-pyridyl]pyrazolo[1,5-a]pyridin-2-yl]amino]benzamide], below 0.000847 µM.

Take `Cc1cc(-c2ccn3nc(Nc4cc(C(=O)NC(C)C)n(C)n4)cc3c2)c(O[C@H]2C[C@H]3COC[C@@H](C2)N3)cn1` [Example 341, N-isopropyl-2-methyl-5-[[5-[2-methyl-5-[[(1S,5R)-3-oxa-9-azabicyclo[3.3.1]nonan-7-yl]oxy]-4-pyridyl]pyrazolo[1,5-a]pyridin-2-yl]amino]pyrazole-3-carboxamide]: the IC50 was below 0.000847 µM. The same measure, in the same setting: to `Cc1cc(-c2ccn3nc(Nc4cc(C)nc(C)n4)cc3c2)c(OC[C@@H]2COC(=O)N2)cn1` [Example 342, (4R)-4-[[4-[2-[(2,6-dimethylpyrimidin-4-yl)amino]pyrazolo[1,5-a]pyridin-5-yl]-6-methyl-3-pyridyl]oxymethyl]oxazolidin-2-one] belongs 0.032 µM. Regarding `Cc1cc(-c2ccn3nc(Nc4cc(C)nc(C)n4)cc3c2)c(O[C@H]2CC[C@H](C(N)=O)CC2)cn1` [Example 343, 4-[[4-[2-[(2,6-dimethylpyrimidin-4-yl)amino]pyrazolo[1,5-a]pyridin-5-yl]-6-methyl-3-pyridyl]oxy]cyclohexanecarboxamide], the IC50 under setting [1] was 0.0376 µM.

Values taken from patent US20240158392A1 (Janssen Biotech, Inc., priority 2021, published 2024).
